Patent US12612403B2, “Nitrogen-containing heterocyclic derivative inhibitor, and preparation method therefor and use thereof” (SHANGHAI HANSOH BIOMEDICAL CO., LTD., priority 2024, dated 2026)

Legend:
PCSK9 protein = target: T1, PCSK9 protein (Homo sapiens, UniProt Q8NBP7); experiment: Binding ability to PCSK9 protein (HTRF); settings: PCSK9-His, Alexa Fluor 647 probe compound
T1 construct: purchased Sino biology (Sino Biological) 29698-H08H
Procedure: 1. Experimental objective: To detect the action of compounds to bind PCSK9 protein by an HTRF method.
3. Experimental data processing method: Four-parameter log(inhibitor) vs. response—Variable slope (four parameters) in XLit was used to perform non-linear fitting of the compound concentration and the corresponding inhibition rate, and IC50 was calculated.

[1] = Pharmacokinetic determination in mice (PO 5 mg/kg, IV 1 mg/kg); assay type: in vivo, C57BL/6J mice; settings: male, C57BL/6J, mouse, plasma, C57 mice, PO administration, 5 mpk
Procedure: 1. Experimental objective: C57BL/6J mice were used as test animals to study the pharmacokinetic behavior of the compounds of the present disclosure in mice (plasma) after oral and intravenous administration.
2.2 Test animals: C57 mice, male, purchased from Shanghai Bk Lab Animal Co., Ltd., with animal production license number (SCXK (Shanghai) 2013-0006 N0.311620400001794).
2.3 Drug preparation: Preparation of oral drug: 10% Solutol HS15
10 g of Solutol HS15 solid was weighed, dissolved in 90 mL of pure water, uniformly mixed, stirred, and ultrasonically treated to form a clear solution. The compound of the present disclosure was weighed and dissolved in this solution, uniformly shaken, and ultrasonically treated for 15 minutes to obtain a colorless clear solution with a concentration of 0.5 mg/mL. Preparation of intravenous drug: 5% DMSO+10% Solutol HS15+85% PBS, the compound of the present disclosure was weighed, 5% DMSO was first added on the basis of the proportion relative to the total volume of administration, and the mixture was vortexed and ultrasonically treated for 2 min until it was completely dissolved; 10% of Solutol HS15 was then added, and the mixture was vortexed and ultrasonically treated for 2 min until it was completely dissolved; and finally, 85% of PBS was added, and the mixture was vortexed, ultrasonically treated for 5 min, and filtered through a 0.22 um filter membrane to obtain a colorless and transparent clear solution with a concentration of 0.2 mg/mL.
2.4 Administration: 3 male C57 mice were fasted overnight and then respectively administered PO at a dose of 5 mg/kg and a volume of 10 mL/kg. 3 male C57 mice were fasted overnight and then respectively administered IV at a dose of 1 mg/kg and a volume of 5 mL/kg.
2.5 Sample collection: Before and after administration of mice, 0.04 mL of blood was collected from the orbit at 0.083 (iv), 0.25, 0.5, 1, 2, 4, 8, and 24 hours, and placed in EDTA-K2 test tubes, which was centrifuged at 6000 rpm at 4° C. for 6 min to separate plasma which was stored at −80° C.; and the […] were fed 4 h after administration.
2.6 Determination results: The final determination results were obtained by using an LCMS/MS method.
3. Experimental results: The main pharmacokinetic parameters were calculated using WinNonlin 6.1.

T1 sequence (Q8NBP7 153-692): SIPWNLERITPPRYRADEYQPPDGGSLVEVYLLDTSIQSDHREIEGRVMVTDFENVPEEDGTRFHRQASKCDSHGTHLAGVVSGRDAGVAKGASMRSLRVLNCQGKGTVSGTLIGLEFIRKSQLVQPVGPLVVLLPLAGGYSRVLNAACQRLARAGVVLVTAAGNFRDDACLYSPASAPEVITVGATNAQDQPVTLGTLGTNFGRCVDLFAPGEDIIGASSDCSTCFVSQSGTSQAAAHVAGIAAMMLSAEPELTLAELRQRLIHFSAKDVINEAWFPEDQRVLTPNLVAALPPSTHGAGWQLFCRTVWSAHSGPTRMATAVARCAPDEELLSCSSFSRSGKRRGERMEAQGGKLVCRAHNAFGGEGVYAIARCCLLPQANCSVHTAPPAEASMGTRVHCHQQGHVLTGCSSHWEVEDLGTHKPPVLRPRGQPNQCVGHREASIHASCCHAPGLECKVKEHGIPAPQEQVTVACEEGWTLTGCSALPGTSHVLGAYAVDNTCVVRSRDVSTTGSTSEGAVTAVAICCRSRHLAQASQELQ

SMILES | IC50 (PCSK9 protein) | other results
O=c1ccncn1-c1ccc(N[C@H]2CC[C@H](Nc3nc4cc(F)ccn4n3)C2)nc1 [Example 28, 3-(6-(((1S,3S)-3-((7-fluoro-[1,2,4]triazolo[1,5-a]pyridin-2-yl)amino)cyclopentyl)amino)pyridin-3-yl)pyrimidin-4(3H)-one] | 17.4 nM | 
O=c1cnccn1-c1ccc(N[C@H]2CC[C@H](Nc3nc4cc(F)ccn4n3)C2)nc1 [Example 29, 1-(6-(((1S,3S)-3-((7-fluoro-[1,2,4]triazolo[1,5-a]pyridin-2-yl)amino)cyclopentyl)amino)pyridin-3-yl)pyrazin-2(1H)-one] | 18.4 nM | 
O=C1COCCN1c1ccc(N[C@H]2CC[C@H](Nc3nc4cc(F)ccn4n3)C2)nc1 [Example 53, 4-(6-(((1S,3S)-3-((7-fluoro-[1,2,4]triazolo[1,5-a]pyridin-2-yl)amino)cyclopentyl)amino)pyridin-3-yl)morpholin-3-one] | 43.6 nM | 
O=C1c2ncc(F)cc2CN1c1ccc(N[C@H]2CC[C@H](Nc3nc4cc(OC(F)F)ccn4n3)C2)nc1 [Example 98] | 6.6 nM | 
O=c1nc(O)ccn1-c1ccc(N[C@H]2CC[C@H](Nc3nc4cc(F)ccn4n3)C2)nc1 [Example 102] | 13.3 nM | 
O=c1nc(O)ccn1-c1ccc(N[C@H]2CC[C@H](Nc3nc4cc(C(F)F)ccn4n3)C2)nc1 [Example 104] | 13.9 nM | 
O=c1nc(O)ccn1-c1ccc(N[C@H]2CC[C@H](Nc3nc4cc(OC(F)F)ccn4n3)C2)nc1 [Example 105] | 9.1 nM | 
Cc1ccn2nc(N[C@H]3CC[C@H](Nc4ccc(-n5ccc(O)nc5=O)cn4)C3)nc2c1 [Example 106] | 10.6 nM | 
O=c1nc(O)ccn1-c1ccc(N[C@H]2CC[C@H](Nc3nc4cc(C5CC5)ccn4n3)C2)nc1 [Example 107] | 21.3 nM | 
O=c1nc(O)c(C(F)(F)F)cn1-c1ccc(N[C@H]2CC[C@H](Nc3nc4cc(C(F)(F)F)ccn4n3)C2)nc1 [Example 119] | 23 nM | 
Cc1cnc2c(c1)C(=O)N(c1ccc(N[C@H]3CC[C@H](Nc4nc5cc(OC(F)F)ccn5n4)C3)nc1)C2 [Example 128] | 8.5 nM | 
Cc1ccc2c(n1)CN(c1ccc(N[C@H]3CC[C@H](Nc4nc5cc(OC(F)F)ccn5n4)C3)nc1)C2=O [Example 131] | 6.7 nM | AUC(0-inf) ([1]; read-out: Area under the curve AUC0-∞): 22400 ng·h/mL; half-life ([1]; read-out: Half-life t1/2 (converted)): 3.4 h; MRT ([1]; read-out: Mean residence time MRT): 2.7 h; Cmax ([1]; read-out: Plasma concentration Cmax): 7170 ng/mL; Tmax ([1]; read-out: Time to peak tmax): 0.5 h
O=C1c2c(F)ccnc2CN1c1ccc(N[C@H]2CC[C@H](Nc3nc4cc(OC(F)F)ccn4n3)C2)nc1 [Example 135] | 5.4 nM | 
N#Cc1cnc2c(c1)C(=O)N(c1ccc(N[C@H]3CC[C@H](Nc4nc5cc(F)ccn5n4)C3)nc1)C2 [Example 137] | 15.9 nM | 
O=C1c2ccc(O)nc2CN1c1ccc(N[C@H]2CC[C@H](Nc3nc4cc(OC(F)F)ccn4n3)C2)nc1 [Example 138] | 8.8 nM | 
O=C1c2nc(O)ccc2CN1c1ccc(N[C@H]2CC[C@H](Nc3nc4cc(C(F)(F)F)ccn4n3)C2)nc1 [Example 139] | 36.3 nM | 
Cc1cc(N[C@H]2CC[C@H](Nc3nc4cc(C(F)(F)F)ccn4n3)C2)ncc1N1Cc2nc(O)ccc2C1=O [Example 144] | 15.6 nM | 
O=C1c2cccnc2CN1c1cnc(N[C@H]2CC[C@H](Nc3nc4cc(OC(F)F)ccn4n3)C2)c(F)c1 [Example 152] | 6.7 nM | 

SMILES | IC50 (PCSK9 protein) | other results
O=C1c2cc(F)cnc2CN1c1cnc(N[C@H]2CC[C@H](Nc3nc4cc(OC(F)F)ccn4n3)C2)c(F)c1 [Example 158] | 16 nM | 
Cc1cc2c(cn1)CN(c1cnc(N[C@H]3CC[C@H](Nc4nc5cc(OC(F)F)ccn5n4)C3)c(F)c1)C2=O [Example 160] | 7.7 nM | 
O=C1c2ncccc2CN1c1cnc(N[C@H]2CC[C@H](Nc3nc4cc(C5CC5)ccn4n3)C2)c(F)c1 [Example 166] | 7.9 nM | 
CC(C)(O)c1ccn2nc(N[C@H]3CC[C@H](Nc4ncc(N5Cc6cccnc6C5=O)cc4F)C3)nc2c1 [Example 168] | 10.6 nM | 
COc1cc(N2Cc3cccnc3C2=O)cnc1N[C@H]1CC[C@H](Nc2nc3cc(C(F)(F)F)ccn3n2)C1 [Example 170] | 13.3 nM | 
Cc1nc(N[C@H]2CC[C@H](Nc3nc4cc(C(F)(F)F)ccn4n3)C2)ccc1N1Cc2cccnc2C1=O [Example 176] | 9.08 nM | 
CC(C)(O)c1cccn(-c2cnc(N[C@H]3CC[C@H](Nc4nc5cc(C(F)(F)F)ccn5n4)C3)c(F)c2)c1=O [Example 182] | 29.3 nM | 
Cc1cc2c(cn1)CN(c1cnc(N[C@H]3CC[C@H](Nc4nc5cc(F)ccn5n4)C3)c(F)c1)C2=O [Example 190] | 8.5 nM | 
O=c1[nH]cc(-c2cnc(N[C@H]3CC[C@H](Nc4nc5cc(C(F)(F)F)ccn5n4)C3)c(F)c2)c(=O)[nH]1 [Example 195] | 9.6 nM | 
CC(C)(O)c1cnc2c(c1)CN(c1cnc(N[C@H]3CC[C@H](Nc4nc5cc(F)ccn5n4)C3)c(F)c1)C2=O [Example 196] | 8.7 nM | 
CC(C)(O)c1ccnc2c1CN(c1cnc(N[C@H]3CC[C@H](Nc4nc5cc(F)ccn5n4)C3)c(F)c1)C2=O [Example 197] | 7.5 nM | 
O=C1c2nccn2CCN1c1cnc(N[C@H]2CC[C@H](Nc3nc4cc(C(F)(F)F)ccn4n3)C2)c(F)c1 [Example 213] | 9.5 nM | 
Cc1ccn2nc(N[C@H]3CC[C@H](Nc4ncc(N5Cc6ncccc6C5=O)cc4F)C3)nc2c1 [Example 223] | 7.2 nM | 
Cc1ccn2nc(N[C@H]3CC[C@H](Nc4ncc(-n5ccccc5=O)cc4F)C3)nc2c1 [Example 224] | 8.5 nM | 
Cc1ccn2nc(N[C@H]3CC[C@H](Nc4ncc(-n5ccc(O)nc5=O)cc4F)C3)nc2c1 [Example 225] | 8.6 nM | 
Cc1ccn2nc(N[C@H]3CC[C@H](Nc4ncc(N5CCn6nccc6C5=O)cc4F)C3)nc2c1 [Example 226] | 7.1 nM | 
Cc1nc(N[C@H]2CC[C@H](Nc3nc4cc(C(F)(F)F)ccn4n3)C2)c(F)cc1N1CCn2nccc2C1=O [Example 238] | 8 nM | 
